Source: patent US5066654A, “2-aryl-3-heterocyclicmethyl-3H-imidazo[4,5-b]pyridines as anxiolytics and anticonvulsants” (A. H. Robins Company, Incorporated, priority 1990, dated 1991)
Values joined by “and” are separate entries in the source; they are usually repeats but may differ in a detail not shown here. Equal entries are not always repeated. Where two headings read alike, the source gives them in different places.

Experiments:
mouse [1] = experiment: exploratory light/dark test procedure (anxiolytic activity); format: in vivo
Method: Anxiolytic activity also was evaluated in vivo in an exploratory […] test procedure [Young et al., Soc. Neurosci. Abs. 14,207 (1988) and Costall et al., Brit. J. Pharmacol. 93,985 (1988)]. Briefly, test compound was administered to a mouse which was placed in a two compartment light-dark activity monitoring box. Control animals typically move to the dark side of the box to avoid the bright light. Animals treated with anxiolytic agents spend more time exploring the lit side of the box than control animals. […]
The following table summarizes the results of representative compounds of this invention in the light/dark exploratory test procedure for anxiolytic activity. Compounds were compared with diazepam as a reference standard at each dose level.

mouse [2] = experiment: loss of righting reflex test procedure (ataxia); format: in vivo
Method: Compounds with anticonvulsant activity typically cause ataxia, an undesirable side effect, at some dose. Representative compounds of this invention were evaluated in a loss of righting reflex test procedure [A. P. Roszkowski, J. Pharmacol. Exp. Ther. 129, 75-81 (1960)]. Briefly, the compound to be evaluated was administered to a mouse which was then placed upside down in its cage. Failure to right itself within 20 seconds was considered to be loss of the righting reflex. Results are expressed as percent of mice losing righting reflex at a given dose.

benzodiazepine receptor = experiment: inhibition of [^3 H]-flunitrazepam binding to the benzodiazepine receptor
Method: Anxiolytic activity was evaluated in vitro according to the method of Chiu et al. [Mol. Pharmacol. 21, 57 (1982)] by determining the IC50 for the inhibition of [^3 H]-flunitrazepam binding to the benzodiazepine receptor.
*Inhibition of [^3 Hflunitroazepam binding to the benzodiazepine

adult female mice [3] = experiment: MES, maximal electroshock test (electrically induced seizures); format: in vivo; conditions: Mus musculus; for responders at 100 mg/kg / responders at 31.6 mg/kg: read-out: MES (% protection)
Method: (§1) Briefly, test compound was administered to adult female mice, followed by either electrical (60 Hz, 5 msec. pulse width […] intensity for 0.2 seconds) or chemical [Metrazole® (pentylenetetrazol)] challenge. […] Results are expressed either as percent protection at a given dose or as the ED50 for protection.
**MES = Maximal electroshock test; results given as % protection at a
given dose (mg/kg) or ED50 (mg/kg).

adult female mice [4] = experiment: SC-MET, subcutaneous Metrazole (pentylenetetrazol) test (chemically induced seizures); format: in vivo; conditions: for ED50: Mus musculus, sc, ED50 for protection
Method: as §1
^+ SCMET = subcutaneous Metrazole ® test; results given as %
protection at a given dose (mg/kg) or ED50 (mg/kg).

[5] = [^3 H]-flunitrazepam, in vitro, read-out: ^3 H-Flu binding IC50

SMILES | % Loss of Righting Reflex (mouse [2]; dose 100 mg/kg) | IC50 (benzodiazepine receptor; [5]) | responders at 100 mg/kg (adult female mice [3]) | ED50 (adult female mice [4]) | % of Time in Lit Area, Compound (mouse [1]; dose 3.16 mg/kg) | % of Time in Lit Area, Compound (mouse [1]; dose 10.0 mg/kg) | other results
CN1C(=O)CN=C(c2ccccc2)c2cc(Cl)ccc21 [Diazepam, diazepam, reference compound] |  |  |  |  |  |  | % of Time in Lit Area, Diazepam (mouse [1]; diazepam reference, row of dose 0.01 mg/kg): 27%; % of Time in Lit Area, Diazepam (mouse [1]; diazepam reference, row of dose 0.1 mg/kg): 27%; % of Time in Lit Area, Diazepam (mouse [1]; diazepam reference, row of dose 1.0 mg/kg, 1 mg/kg): 28% and 26%; % of Time in Lit Area, Diazepam (mouse [1]; diazepam reference, row of dose 3.16 mg/kg, 3.16 mg/kg): 26% and 27% and 28%; % of Time in Lit Area, Diazepam (mouse [1]; diazepam reference, row of dose 5.62 mg/kg): 27%; % of Time in Lit Area, Diazepam (mouse [1]; diazepam reference, row of dose 10.0 mg/kg, 10 mg/kg): 26% and 28%; sedation, Diazepam (mouse [1]; diazepam reference, row of dose 17.8 mg/kg): sedation; % of Time in Lit Area, Diazepam (mouse [1]; diazepam reference, row of dose 31.6 mg/kg, 31.6 mg/kg): 28% and 26%; % of Time in Lit Area, Diazepam (additional result) (mouse [1]; dose of 10 mg/kg, additional result in footnote): 28%
Clc1ccc(-c2nc3cccnc3n2Cc2ccccn2)cc1 [Example 1, 2-(4-Chlorophenyl)-3-(2-pyridinylmethyl)-3H-imidazo[4,5-b]pyridine] | 0% | 7000 nM | 0% |  |  |  | SC-MET (% protection) (adult female mice [4]; dose 100 mg/kg): 37.5%
Cc1ccc(-c2nc3cccnc3n2Cc2ccccn2)cc1 [Example 2, 2-(4-Methylphenyl)-3-(2-pyridinylmethyl)-3H-imidazo[4,5-b]pyridine] | 0% | 3100 nM | 25% | 48.7 mg/kg |  |  | 
Clc1ccc(-c2nc3ccc(Cl)nc3n2Cc2ccccn2)cc1 [Example 3, 5-Chloro-2-(4-chlorophenyl)-3-(2-pyridinylmethyl)-3H-imidazo[4,5-b]pyridine] | 0% | 3300 nM | 0% |  |  |  | SC-MET (% protection) (adult female mice [4]; dose 100 mg/kg): 62.5%
Cc1ccc(-c2nc3ccc(Cl)nc3n2Cc2ccccn2)cc1 [Example 4, 5-Chloro-2-(4-methylphenyl)-3-(2-pyridinylmethyl)-3H-imidazo[4,5-b]pyridine] | 0% | 1600 nM |  | 38.8 mg/kg |  |  | 
Cc1ccc(-c2nc3ccc(Cl)nc3n2Cc2ncc[nH]2)cc1 [Example 5, 5-Chloro-3-(1H-imidazol-2-ylmethyl)-2-(4-methylphenyl)-3H-imidazo[4,5-b]pyridine] | 0% | 300 nM | 0% | 6.92 mg/kg |  |  | 
Cc1ccc(-c2nc3ccc(C)nc3n2Cc2ccccn2)cc1 [Example 6, 5-Methyl-2-(4-methylphenyl)-3-(2-pyridinylmethyl)-3H-imidazo[4,5-b]pyridine] | 0% | 3900 nM | 12.5% | 38.1 mg/kg | 36% | 38% | 
Cc1ccc2nc(-c3ccc(Cl)cc3)n(Cc3ccccn3)c2n1 [Example 7, 2-(4-Chlorophenyl)-5-methyl-3-(2-pyridinylmethyl)-3H-imidazo[4,5-b]pyridine] | 62.5% | 7300 nM |  | 29.4 mg/kg |  |  | ED50 (adult female mice [3]; ED50 for protection): 76 mg/kg
Clc1ccc(-c2nc3cccnc3n2Cc2ncc[nH]2)cc1 [Example 8, 2-(4-Chlorophenyl)-3-(1H-imidazol-2-ylmethyl)-3H-imidazo[4,5-b]pyridine] |  | 410 nM |  |  |  |  | % Loss of Righting Reflex (mouse [2]; dose 31.6 mg/kg): 0%; responders at 31.6 mg/kg (adult female mice [3]): 0%; SC-MET (% protection) (adult female mice [4]; dose 31.6 mg/kg): 0%
Cc1ccc(-c2nc3cccnc3n2Cc2ncc[nH]2)cc1 [Example 9, 3-(1H-Imidazol-2-ylmethyl)-2-(4-methylphenyl)-3H-imidazo[4,5-b]pyridine] |  | 140 nM |  | 15.4 mg/kg |  |  | responders at 31.6 mg/kg (adult female mice [3]): 0%
Clc1ccc(-c2nc3ccc(Cl)nc3n2Cc2ncc[nH]2)cc1 [Example 10, 5-Chloro-2-(4-chlorophenyl)-3-(1H-imidazol-2-ylmethyl)-3H-imidazo[4,5-b]pyridine] | 0% | 130 nM |  | 8.6 mg/kg | 49% | 40% | % of Time in Lit Area, Compound (mouse [1]; dose 0.01 mg/kg): 35%; % of Time in Lit Area, Compound (mouse [1]; dose 0.1 mg/kg): 37%; % of Time in Lit Area, Compound (mouse [1]; dose 5.62 mg/kg): 49%; % of Time in Lit Area, Compound (additional result) (mouse [1]; dose 10 mg/kg, additional result in footnote): 38%; sedation, Compound (mouse [1]; mouse, in vivo, 17.8 mg/kg): sedation; IC50 (benzodiazepine receptor; obtained on reevaluation, read-out: ^3 H-Flu binding IC50 (reevaluation)): 160 nM
Cc1c[nH]c(Cn2c(-c3ccc(Cl)cc3)nc3cccnc32)n1 [Example 11, 2-(4-Chlorophenyl)-3-(4-methyl-1H-imidazol-2-ylmethyl)-3H-imidazo[4,5-b]pyridine] | 0% | 390 nM | 0% | 16.8 mg/kg | 40% | 40% | % of Time in Lit Area, Compound (mouse [1]; dose 1.0 mg/kg): 38%; % of Time in Lit Area, Compound (mouse [1]; dose 31.6 mg/kg): 53%
Cc1ccc(-c2nc3cccnc3n2Cc2nc(C)c[nH]2)cc1 [Example 12] | 0% | 220 nM | 0% | 14.8 mg/kg | 40% | 51% | % of Time in Lit Area, Compound (mouse [1]; dose 1.0 mg/kg): 38%; % of Time in Lit Area, Compound (mouse [1]; dose 31.6 mg/kg): 48%
